What is called Ki is a measure of affinity in units of concentration, obtained from inhibition or displacement. Lower therefore signals a stronger hold on the target.

Each structure is given as a SMILES string.

The assay concerns the target T1, human Gcn5L2 (hsGcn5L2) (Homo sapiens, UniProt Q92830).
T1 construct: gene KAT2A; catalytic domain, amino acids 497–662
Put plainly: X-ray crystal structure ([…] Å); Ki from enzyme-coupled acetylation assay on purified catalytic domain. Format: biochemical.

T1 sequence (Q92830 497-662): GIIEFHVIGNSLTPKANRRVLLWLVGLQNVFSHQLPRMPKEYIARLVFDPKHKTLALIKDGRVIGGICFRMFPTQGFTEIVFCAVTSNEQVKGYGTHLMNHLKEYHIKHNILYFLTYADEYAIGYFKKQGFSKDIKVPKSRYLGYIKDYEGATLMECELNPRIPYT

In turn, `CCCC(=O)SCCNC(=O)CCNC(=O)[C@H](O)C(C)(C)COP(=O)(O)OP(=O)(O)OC[C@H]1O[C@@H](n2cnc3c(N)ncnc32)[C@H](O)[C@@H]1OP(=O)(O)O` [butyryl-CoA] gave a Ki of 5.6 ± 0.7 µM.

Values taken from publication PMC4932917, “Structural basis for acyl-group discrimination by human Gcn5L2” (Acta Crystallographica. Section D, Structural Biology, 2016).
